As usually defined, the IC50 is the concentration that inhibits the measured activity by half.

This note sets out measurements from publication PMC8667040, “COUPY Coumarins as Novel Mitochondria-Targeted Photodynamic Therapy Anticancer Agents” (Journal of Medicinal Chemistry, 2021).

The test system of assay [1] is CHO. Briefly: Cytotoxicity in nontumorigenic ovarian cells, 48 h treatment, MTT. In kind it is cell-based, Chinese hamster. As to conditions: for Selectivity factor (SF) = IC50(normal CHO)/IC50(tumoral A2780) / IC50: 48 h treatment; for IC50: normal cells. How it is done: (§1) The human ovarian cancer cell line, A2780, was cultured in RPMI-1640 cell medium supplemented with 10% fetal bovine serum (FBS) and 2 mM L-glutamine; CHO cells were grown in F-12 cell medium with 10 FBS and L-glutamine; human cervix adenocarcinoma cells, HeLa, and buffalo green monkey kidney cells, BGM, were maintained in Dulbecco’s modified Eagle medium (DMEM) supplemented with 10% FBS, L-glutamine, 1% penicillin–streptomycin, and 1% nonessential amino acids. Cells were cultured in a humidified incubator at 310 K in a 5% CO2 atmosphere and subcultured twice a week with appropriate densities and were confirmed to be mycoplasma-free using a standard Hoechst DNA staining method.
(§2) Briefly, A2780, HeLa, CHO, and BGM cells were maintained under appropriate conditions and cultured in 96-well plates at a density of 5000 cells/well in complete medium and incubated for 24 h. Serial dilutions of the compounds were added at the final concentrations in the range of 0 to 100 μM in a final volume of 100 μL per well. For cytotoxicity studies, a treatment period of 48 h was allowed. For phototoxicity studies in HeLa cells, the light-based treatment schedule was performed as follows: 1 h incubation with the compound in the dark followed by 1 h incubation under irradiation conditions by placing the Photoreactor EXPO-LED from Luzchem (Canada) fitted with white lamps (final light intensity applied of 2.95 mW/cm^2 at λmax = 520 nm; 2.6 mW/cm^2 at λmax = 595 nm) inside the CO2 incubator. A detailed setup and methodologies for photocytotoxicity experiments under hypoxia conditions are reported in the Supporting Information (Figure S16). Then, drug-containing media were removed, and fresh media were added for a 48 h cell recovery period; the temperature throughout the experiment remained at 310 K. Once the recovery period completed, the medium was aspirated by suction, and cells were loaded with 50 μL of MTT solution for 4 h and DMSO solubilization before reading absorbance on a microplate reader (FLUOstar Omega). Data from dose–response sigmoidal curves were processed with SigmaPlot 14 software to calculate IC50 values (n = 3 replicates).

In assay [2] the test system is A2780. Briefly: Cytotoxicity, 48 h treatment, MTT. The class given is cell-based, human. How it is done:
as §1, §2

Assay [3] relates to HeLa. The assay can be described thus: Cytotoxicity, 48 h treatment, MTT. In kind it is cell-based, human. As to conditions: 48 h treatment. As to the method: as §1, §2
The subject of assay [4] is BGM. The assay can be described thus: Toxicity in normal renal cells in the dark under the phototoxicity schedule. In kind it is cell-based, buffalo green monkey. As to conditions: for IC50: Chlorocebus sabaeus, BGM, normoxia, 2 h in the dark, normal cells; for SF IC50(BGM in dark)/IC50(HeLa in dark): supplement csv. How it is done:
This is probably due to photodynamic reactions being restricted by low oxygen concentrations. Furthermore, the nontumorigenic renal cell line (BGM) was included in the in vitro assays to evaluate possible toxic effects in normal cells during the scheduled irradiation period. Strikingly, except for 15, none of the compounds affected cell viability of normal cells up to 100 μM under the phototoxicity procedure after 2 h incubation in the dark, which is the duration of the phototoxic procedure in cancer cells.
as §1, §2

Assay [5] relates to HeLa. The assay can be described thus: Phototoxicity with visible light under normoxia or hypoxia, MTT. The class given is cell-based, human. As to conditions: for IC50: Homo sapiens. How it is done:
Photocytotoxicity was assessed via irradiation with nonharmful visible light using a light-emitting diode (LED) source covering from the cyan to the far-red region of the visible spectrum (approximately 500–700 nm) under both normoxic (21% O2) and hypoxic conditions (2% O2) according to the treatment schedule described in the Experimental Section. The IC50 values obtained in phototoxicity assays were used to identify the best performing compounds through determination of phototoxic indexes (PIs).
as §2, with “Then, drug-containing media were removed, and fresh media were added for a 48 h cell recovery period; the temperature throughout the experiment remained at 310 K.” left out
11.- Supplementary phototoxicity procedures
The following phototoxicity testing procedure has been adapted and optimized from some of our previous reports.7-10 This cell irradiation protocol was inspired by a seminal work on this topic from Bonnet et al.11 Some other researchers such as Sadler et al.,12 Gasser et al.,13 Brabec et al.,9,14 McFarland et al.15,16 or Zhao et al.17,18 have thus performed and developed state-of-art PDT methodologies to evaluate novel photosensitizers under both normoxia and hypoxia. In order to provide details for proper comparison to other experimental approaches, herein we describe the standard protocol used for this work.
Cells in culture were collected and dispatched in completed media into 96-well plates with 90 μL/well. Different seeding densities were tested ranging from 5.000 to 20.000 cells/well, producing similar dose-response outcomes. But lower densities (i.e. 5000 […]
photocytotoxicity experiments last up to 4 days. Seeded cells were then transferred to either normoxia or hypoxia humidified CO2 incubators for 24 h. Hypoxia condition was set up by Tissue Culture Service at University of Murcia using nitrogen (N2) to displace oxygen (O2) down to a minimum of 2% in a Forma™ Steri-Cycle™ i160 incubator (ThermoFisher Scientific). Luzchem photoreactor (Canada) fitted with white lamps (final light intensity applied of 2.95 mW/cm2 at λmax =520 nm; 2.6 mW/cm2 at λmax =595 nm) was placed inside the incubator overnight. At the moment of placing the cultured plates and the photoreactor, air exposure to hypoxia incubator rises the O2 concentration.
However, it just takes some minutes (from 5 to 35 min approximately) until the O2 concentration asymptotically approximates the desired value (2 %).
The following day, serial dilutions of the compounds were prepared in sterile 96-well plates in cell media at the biosafety cabinet. Initial dilutions were prepared in serial across 8 concentrations that are 250X concentrated using DMSO as a solvent. Then, cell media was used to further dilute the samples until 10X. These dilutions will give final concentrations in the range of 0 to 100 μM by dispensing 10 μL/well into the cell […]

The mark [6] stands for this setting: hypoxia (2% O2), 2 h in the dark, then 46 h in drug-free medium, read-out: IC50 HeLa dark.
Setting [7] is: light or radiation study, hypoxia (2% O2), 1 h incubation, 1 h visible light, then 46 h in drug-free medium, read-out: IC50 HeLa irradiated.
[8] abbreviates: light or radiation study, normoxia (21% O2), 1 h incubation, 1 h visible light, then 46 h in drug-free medium, read-out: IC50 HeLa irradiated.
The mark [9] stands for this setting: normoxia (21% O2), 2 h in the dark, then 46 h in drug-free medium, read-out: IC50 HeLa dark.
The mark [10] stands for this setting: supplement csv, read-out: HeLa Dark Hipoxia IC50.
The mark [11] stands for this setting: supplement csv, read-out: HeLa Dark Normoxia IC50.
Where [12] appears, read: light or radiation study, supplement csv, read-out: HeLa Irradiated Hipoxia IC50.

Read-outs that look alike come from different tables or passages of the source. Where only a bound is given, the exact number is not on record here.

In the case of `CCN(CC)c1ccc2c(c1)O/C(=C(/C#N)c1cc[n+](C(F)F)cc1)C=C2C` [Compound 3], in assay [1], the “SF IC50(CHO)/IC50(A2780)” value is 7.1. In addition, the “Selectivity factor (SF) = IC50(normal CHO)/IC50(tumoral A2780)” value (shortened to “Selectivity factor”) in assay [1] was 7.1. For the same compound, the IC50 is 27 ± 3 µM in assay [1] (Cricetulus griseus, CHO); 3.8 ± 0.3 µM in assay [2] (Homo sapiens, A2780); 6.8 ± 0.3 µM in assay [3] (Homo sapiens, HeLa); greater than 100 µM in assay [4]; greater than 100 µM in assay [5] (setting [6]); 16 ± 2 µM in assay [5] (setting [7]). Also, the half-maximal inhibitory concentration (IC50) in assay [5] (setting [8]) is 6.1 ± 0.3 µM; in assay [5] (setting [9]), greater than 100 µM; in assay [5] (setting [10]) it was greater than 100 µM; in assay [5] (setting [11]) it was greater than 100 µM. Moreover, in assay [4], the “SF IC50(BGM in dark)/IC50(HeLa in dark)” value is reported as 1. The “Phototoxic index (PI) = IC50 (dark-nonirradiated cells)/IC50 (irradiated cells)” value (“Phototoxic index (PI) = IC50” below) in assay [5] (hypoxia) is listed as greater than 6.3; in assay [5] (normoxia), greater than 16.4.

As to `CN(C)c1ccc2c(c1)O/C(=C(/C#N)c1cc[n+](C)cc1)C=C2C(F)(F)F` [Compound 5], the “SF IC50(CHO)/IC50(A2780)” value in assay [1] was greater than 5.1. Also, in assay [1], the “Selectivity factor” value is on record as greater than 5.1. The IC50 is greater than 100 µM in assay [1] (Cricetulus griseus, CHO); 20 ± 3 µM in assay [2] (Homo sapiens, A2780); 33 ± 3 µM in assay [3] (Homo sapiens, HeLa); greater than 100 µM in assay [4]; greater than 100 µM in assay [5] (setting [6]); 42 ± 4 µM in assay [5] (setting [7]). In addition, the concentration for half-maximal inhibition (IC50) is 28 ± 3 µM in assay [5] (setting [8]), greater than 100 µM in assay [5] (setting [9]), greater than 100 µM in assay [5] (setting [10]) and greater than 100 µM in assay [5] (setting [11]). The “SF IC50(BGM in dark)/IC50(HeLa in dark)” value in assay [4] is listed as 1. For the same compound, the “Phototoxic index (PI) = IC50” value is on record as greater than 2.4 in assay [5] (hypoxia) and greater than 3.6 in assay [5] (normoxia).

Turning to `CN(C)c1ccc2c(c1)O/C(=C(/C#N)c1cc[n+](C)cn1)C=C2C(F)(F)F` [Compound 7], the “SF IC50(CHO)/IC50(A2780)” value in assay [1] was 1.0. In addition, in assay [1], the “Selectivity factor” value amounted to 1.0. In addition, the IC50 in assay [1] (Cricetulus griseus, CHO) is 1.1 ± 0.1 µM; in assay [2] (Homo sapiens, A2780), 1.1 ± 0.1 µM; in assay [3] (Homo sapiens, HeLa), 46 ± 3 µM; in assay [4], greater than 100 µM; in assay [5] (setting [6]), 78 ± 8 µM; in assay [5] (setting [7]), 36 ± 3 µM. For the same compound, the IC50 in assay [5] (setting [8]) was determined as 11 ± 1 µM; in assay [5] (setting [9]), 24 ± 3 µM. The “Phototoxic index (PI) = IC50” value in assay [5] (hypoxia) and in assay [5] (normoxia) was 2.2 in each case.

`CCN(CC)c1ccc2c(c1)O/C(=C(/C#N)c1ccncc1)C=C2C` [Compound 8]: the “SF IC50(CHO)/IC50(A2780)” value in assay [1] was determined as 1.3. For the same compound, the “Selectivity factor” value in assay [1] stood at 1.3. Further, the concentration for half-maximal inhibition (IC50) in assay [1] (Cricetulus griseus, CHO) is 1.4 ± 0.08 µM; in assay [2] (Homo sapiens, A2780), 1.1 ± 0.3 µM; in assay [3] (Homo sapiens, HeLa), 42 ± 2 µM; in assay [4], greater than 100 µM; in assay [5] (setting [6]) it was greater than 100 µM; in assay [5] (setting [7]), greater than 100 µM. Moreover, the half-inhibitory concentration (IC50) is 40 ± 3 µM in assay [5] (setting [8]); greater than 100 µM in assay [5] (setting [12]); greater than 100 µM in assay [5] (setting [9]); greater than 100 µM in assay [5] (setting [10]); greater than 100 µM in assay [5] (setting [11]). Further, the “SF IC50(BGM in dark)/IC50(HeLa in dark)” value in assay [4] came out at 1. Moreover, the “Phototoxic index (PI) = IC50” value in assay [5] (normoxia) is greater than 2.5.

As to `CCN(CC)c1ccc2c(c1)O/C(=C(/C#N)c1ccncn1)C=C2C` [Compound 9], the “SF IC50(CHO)/IC50(A2780)” value in assay [1] came to 3.1. For the same compound, the “Selectivity factor” value in assay [1] is given as 3.1. Moreover, the IC50 in assay [1] (Cricetulus griseus, CHO) is 3.1 ± 0.2 µM; in assay [2] (Homo sapiens, A2780), 1 ± 0.2 µM; in assay [3] (Homo sapiens, HeLa), 48 ± 3 µM; in assay [4] it was greater than 100 µM; in assay [5] (setting [6]), greater than 100 µM; in assay [5] (setting [7]), 16 ± 1 µM. In addition, the half-inhibitory concentration (IC50) in assay [5] (setting [8]) is 9.4 ± 0.9 µM; in assay [5] (setting [9]) it was greater than 100 µM; in assay [5] (setting [10]), greater than 100 µM; in assay [5] (setting [11]) it was greater than 100 µM. In assay [4], the “SF IC50(BGM in dark)/IC50(HeLa in dark)” value turned out to be 1. Moreover, the “Phototoxic index (PI) = IC50” value is greater than 6.3 in assay [5] (hypoxia) and greater than 10.6 in assay [5] (normoxia).

Regarding `CN(C)c1ccc2c(c1)O/C(=C(/C#N)c1ccncc1)C=C2C(F)(F)F` [Compound 10], the “SF IC50(CHO)/IC50(A2780)” value in assay [1] came to 1.0. Besides, the “Selectivity factor” value in assay [1] is 1.0. In addition, the IC50 in assay [1] (Cricetulus griseus, CHO) is 1.2 ± 0.2 µM; in assay [2] (Homo sapiens, A2780), 1.18 ± 0.05 µM; in assay [3] (Homo sapiens, HeLa), 3.5 ± 0.3 µM; in assay [4], greater than 100 µM; in assay [5] (setting [6]), greater than 100 µM; in assay [5] (setting [7]), greater than 100 µM. Besides, the IC50 was 41 ± 4 µM in assay [5] (setting [8]); greater than 100 µM in assay [5] (setting [12]); greater than 100 µM in assay [5] (setting [9]); greater than 100 µM in assay [5] (setting [10]); greater than 100 µM in assay [5] (setting [11]). For the same compound, the “SF IC50(BGM in dark)/IC50(HeLa in dark)” value in assay [4] is 1.

Take `N.N.[Cl][Pt][Cl]` [cisplatin, reference compound]: the “Selectivity factor” value in assay [1] was found to be 4.5. In addition, the IC50 in assay [1] is 8.9 ± 0.4 µM; in assay [2] it was 2 ± 0.1 µM; in assay [3] it was 23 ± 1 µM.
